The values that follow come from paper PMC5618421, “Anti-Inflammatory Effects of Curvularin-Type Metabolites from a Marine-Derived Fungal Strain Penicillium sp. SF-5859 in Lipopolysaccharide-Induced RAW264.7 Macrophages” (Marine Drugs, 2017).

Assay type in all cases: cell-based
The subject of one experiment is NF-κB (p50 and p65). Nature of the experiment: Western blot of nuclear NF-κB (p50 and p65) in LPS-treated RAW264.7 macrophages. To be noted: pre-treated 3 h, LPS (1 μg/mL) 1 h. As to the method:
(§1) Figure 3 Effects of 8 on NF-κB activation (nuclear-p50 and p65) (a), IκBα phosphorylation and degradation (b), and the DNA binding activity of NF-κB (c) in LPS-treated RAW264.7 macrophages. Cells were pre-treated with the indicated concentrations of 8 for 3 h and stimulated with LPS (1 μg/mL) for 1 h. Western blot analysis (IκBα and p-IκBα in the cytoplasm and NF-κB in the nucleus) was performed as described in the Materials and Methods. Representative blots from three independent experiments are shown. A commercially-available NF-κB ELISA kit (Active Motif) was used to test the nuclear extracts and determine the degree of NF-κB binding. The data shown represent the mean values of three independent experiments. * p < 0.05 compared with the group treated with LPS.
(§2) The proteins of iNOS, COX-2, NF-κB, and MAPKs were measured by Western blot analysis. The details of procedures for Western blot analysis were described previously.
(§3) The proteins of nuclear NF-κB (p50 and p65) and cytosolic IκBα (p-IκBα and IκBα) were obtained by using cytosolic and nuclear fractions. The details of this procedure have been described previously.

The next experiment concerns TNF-α (Tnf). Put plainly: RT-qPCR of TNF-α mRNA in LPS-stimulated RAW264.7 macrophages. To be noted: pre-treated 3 h, LPS (1 μg/mL) 6 h.
In experiment [1] the test system is c-Jun N-terminal kinase (JNK). Put plainly: Western blot of JNK phosphorylation in LPS-treated RAW264.7 macrophages. To be noted: pre-treated 3 h, LPS (1 μg/mL) 30 min. The procedure: (§4) Figure 4 Effects of 8 on p38 (a), JNK (b), and ERK (c) phosphorylation in RAW264.7 macrophages. Cells were pre-treated with the indicated concentrations of 8 for 3 h and stimulated for 30 min with LPS (1 μg/mL). Cell extracts were subjected to Western blotting with antibodies specific for phosphorylated-p38 (p-p38), phosphorylated JNK (p-JNK), or phosphorylated ERK1/2 (p-ERK). Membranes were stripped and re-probed to measure the total abundance of each MAPK as a control measurement. Representative blots from three independent experiments are shown.
as §2
A general note: A western blot detects proteins with antibodies after separation by electrophoresis.

Experiment [2] concerns NO production in LPS-treated RAW 264.7 macrophages. Nature of the experiment: Inhibition of NO production (nitrite, Griess reaction) in LPS-treated RAW264.7 macrophages. Conditions: Mus musculus; RAW264.7 macrophages pre-treated 3 h with compound, then LPS (1 μg/mL) 24 h; Griess reaction. The procedure: All isolated compounds (1–9) were evaluated for their anti-inflammatory effects. […] NO is a small molecule which is an intracellular mediator produced in various immune cells. It plays a pivotal role in the physiological and pathological condition of inflammatory symptoms. PGE2 can also regulate the immune and inflammatory responses. In this study, RAW264.7 macrophages were pre-treated for 3 h in the medium containing non-toxic concentrations (Table 2) of each compound (1–9), and then LPS (1 μg/mL) was treated for 24 h. According to the LPS stimulation of RAW264.7 macrophages, production of NO and PGE2 was increased, and the effects of all compounds on the production level of NO and PGE2 were evaluated by the Griess reaction and a PGE2 kit, respectively. […] To evaluate the impact of phenol and resorcinol groups in the curvularin-type metabolites for the anti-inflammatory activity, 5-O-methyl and 5,7,-di-O-methyl derivatives of curvularin (3a and 3b, respectively), as well as 5-O-acetyl and 5,7,-di-O-acetyl derivatives of curvularin (3c and 3d, respectively), were prepared, and the structures of 3a–3d were identified by comparison the ^1H and ^13C-NMR spectroscopic data with those of curvularin (3), and confirmed by their HRESIMS. […] The position of the methoxy group in 3a was confirmed by HMBC correlation between methoxy signal at δH 3.77 (3H, s, 5-OCH3) and δC 161.8 (C-5). The NOESY cross-peaks between acetyl proton ([…]) with H-2, H-4, and H-16 of 3c were used to identify the position of the acetyl group in 3c. […] Further systematic investigations are needed to clarify the structure activity relationship associated with the modification of the aliphatic part of the molecule.
As an indicator of NO production in RAW264.7 macrophages, production of nitrite, a stable end-product of NO oxidation, was estimated. Briefly, the concentration of nitrite in the conditioned media was determined by a method based on the Griess reaction, and the details of the assay were described previously.
(In general: Nitrite, measured by Griess reagent, commonly stands in for NO production.)

The subject of experiment [3] is extracellular signal-regulated kinase (ERK). Put plainly: Western blot of ERK phosphorylation in LPS-treated RAW264.7 macrophages. Conditions: pre-treated 3 h, LPS (1 μg/mL) 30 min. As to the method:
as §4, §2

A further experiment has as its system IκB-α. Nature of the experiment: Western blot of cytosolic IκBα phosphorylation and degradation in LPS-treated RAW264.7 macrophages. To be noted: pre-treated 3 h, LPS (1 μg/mL) 1 h. As to the method:
as §1, §2, §3

In another experiment the test system is NF-κB. Nature of the experiment: DNA binding activity of NF-κB in nuclear extracts (TransAM ELISA kit). Conditions: pre-treated 3 h, LPS (1 μg/mL) 1 h. The procedure: as §1
TransAM kit (Active Motif, Carlsbad, CA, USA) was used to estimate the DNA-binding activity of NF-κB in the nuclear extract according to the manufacturer’s instructions as described previously.
In general terms: In an ELISA, binding on a coated surface is turned into a signal by an enzyme label.

In the case of `C[C@H]1CCC/C=C/C(=O)c2c(O)cc(O)cc2CC(=O)O1` [Compound 8, (10E,15S)-10,11-dehydrocurvularin], in the experiment with NF-κB (p50 and p65), the “nuclear translocation of p50 and p65” value was “clearly suppressed the nuclear translocation of p50 and p65 in a dose-dependent manner”. Besides, the “mRNA expression of TNF-α” value in the experiment with TNF-α (Tnf) was “markedly suppressed the mRNA expression of IL-1β, IL-6, and TNF-α in a dose-dependent manner”. For the same molecule, the “LPS-induced phosphorylation of JNK” value in experiment [1] was “did not suppress these phosphorylations”. In experiment [2], the IC50 worked out at 1900 ± 300 nM. Further, in experiment [3], the “LPS-induced phosphorylation of ERK” value is recorded as “did not suppress these phosphorylations”. Besides, in the experiment with IκB-α, the “degradation of IκB-α” value is listed as “blocked the degradation of IκB-α in a concentration-dependent manner” and the “phosphorylation of IκB-α” value is recorded as “attenuated this phosphorylation of IκB-α”. For the same molecule, in the experiment on NF-κB, the “LPS-induced DNA binding activity of NF-κB” value was “declined”.

As a reminder, the IC50 is the concentration that gives 50% inhibition.
